Data taken from PubChem BioAssay AID463206 (Broad Institute, 2010).
Active and inactive are the calls of the source.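 How the source made its calls: active means caspase luminescence falls with dose and the half-maximal concentration AC50 from the fitted curve is at or below a set limit; inconclusive means flat fit at 30 to 70% signal loss, or invalid fit; inactive means AC50 above the limit, or signal rises instead.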

test system: INS-1E cytokine-induced caspase-3/7, Caspase-Glo luminescence, 48 h; assay: inhibitors of cytokine-induced caspase-3/7 activity, dose response, orthogonal assay for beta-cell apoptosis protection project, INS-1E rat cells, luminescence (AID 463206)

SMILES	AC50
CC(=O)NC(c1cccs1)c1cc([N+](=O)[O-])c2cccnc2c1O (stereo not given)	> 26 µM (inactive)
COc1cc(C(=O)NC(=S)NNC(=O)c2cnccn2)cc(OC)c1OC	> 26 µM (inactive)
O=C(Nc1ccc(-c2csc(Nc3cccc(C(F)(F)F)c3)n2)cc1)c1cc([N+](=O)[O-])cc(C(F)(F)F)c1	> 26 µM (inactive)
CC(C(c1cccs1)c1c(N)n(C)c(=O)n(C)c1=O)[N+](=O)[O-] (stereo not given)	> 26 µM (inactive)
O=S(=O)(NCC1CCCO1)c1ccc(-c2ccc(S(=O)(=O)NCC3CCCO3)cc2)cc1 (stereo not given)	> 26 µM (inactive)
CCOc1ccc(OCc2ccc(C(=O)NN=Cc3ccc[nH]3)cc2)cc1	> 26 µM (inactive)
O=[N+]([O-])c1ccc(NC(=S)NCCc2ccc(F)cc2)cc1	> 26 µM (inactive)
Cc1ccc(C(=O)NC(=S)/C=C2\N(C)c3ccccc3C2(C)C)cc1	> 26 µM (inactive)
CC(=O)NC(c1ccc(C(C)C)cc1)c1ccc2cccnc2c1O (stereo not given)	> 26 µM (inactive)
[O-][N+]1=c2ccc(Nc3ccccc3)cc2=NC12CCCCC2	> 26 µM (inactive)
C/C(=N\NC(=O)c1ccc(C)cc1)c1c(C)[nH]n(-c2ccccc2)c1=O	> 26 µM (inactive)
Cc1ccccc1N1CCN(Cc2c[nH]c3ccccc23)CC1	> 26 µM (inactive)
Cn1cccc1/C=N/NC(=O)Cc1cccs1	> 26 µM (inactive)
COc1cc(N/N=C/c2ccccc2O)ncn1	> 26 µM (inactive)
COc1ccc(O)c(/C=N/NC(=O)c2ccc(CSc3nc(C)cc(C)n3)cc2)c1	> 26 µM (inactive)
CC(C)CN(C(=O)COC(=O)C12CC3CC(CC(Cl)(C3)C1)C2)c1c(N)n(Cc2ccccc2)c(=O)[nH]c1=O	> 26 µM (inactive)
Fc1ccccc1/C=N/Nc1nc(-c2ccccn2)nc2ccccc12	> 26 µM (inactive)
COc1ccc(-c2ccc3c(c2)S(=O)(=O)c2cccc(C(=O)NCCOc4ccccc4Cl)c2C3=O)cc1OC	> 26 µM (inactive)
Cc1cc(C)nc(-n2nc(C)cc2Nc2ccccc2)n1	> 26 µM (inactive)
COc1cc(CN2CCN(c3cc(C)ccc3C)CC2)ccc1O	> 26 µM (inactive)
Cc1ccc(F)c([C@H]2C3C=CCC(c4ccccc4)C3C(=O)N2Cc2ccccc2)c1 (stereo not given in full)	> 26 µM (inactive)
CCN(CC)S(=O)(=O)c1cc(C)ccc1NC(=S)Nc1cccnc1	> 26 µM (inactive)
CC1=C/C(=N\OS(=O)(=O)c2ccccc2)C(C)=CC1=O	> 26 µM (inactive)
O=C(/C=C/c1ccc(-c2ccccc2)cc1)NCc1cccnc1	> 26 µM (inactive)
O=C1c2ccc3c4c(ccc(c24)C(=O)N1c1cccc(O)c1)C(=O)N(c1cccc(O)c1)C3=O	> 26 µM (inactive)

SMILES	AC50
O=C(Nc1ccccc1Cl)/C(Cl)=C(\Cl)S(=O)c1ccccc1 (stereo not given)	> 26 µM (inactive)
Cc1cc(N2CCN(c3nc4ccccc4s3)CC2)n2ncnc2n1	> 26 µM (inactive)
O=C(NCc1nc2ccccc2[nH]1)C1=C[C@@H](C2CCCCC2)C[C@@H](OCc2ccc(CO)cc2)O1	> 26 µM (inactive)
CCOC(=O)/C(=C\c1ccc(OC(F)F)cc1)C1=Nn2c(nnc2-c2ccc(Cl)cc2)SC1	> 26 µM (inactive)
Cc1ccc2oc(-c3ccc(NC(=O)c4cccnc4)cc3)nc2c1	> 26 µM (inactive)
CNC[C@H](Cc1ccccc1)NC[C@@H](Cc1cccc2ccccc12)NCCc1ccc(C)cc1	> 26 µM (inactive)
C/C(=N\Nc1nc(-c2ccccn2)nc2ccccc12)c1ccc(F)cc1	> 26 µM (inactive)
O=C1C=C(Nc2ccc(O)cc2)C(=O)c2ccccc21	> 26 µM (inactive)
O=S(=O)(NCc1ccncc1)c1ccc(Br)s1	> 26 µM (inactive)
Cc1ccc(N(CC(=O)Nc2cc(C)cc(C)c2)S(=O)(=O)c2c(C)noc2C)cc1	> 26 µM (inactive)
CCN1/C(=C/c2cccc[n+]2C)Sc2ccc(OC)cc21	> 26 µM (inactive)
Cc1ccc2c(C)ccc(O)c2n1	> 26 µM (inactive)
Cc1c(C(=O)Nc2nc(-c3ccccn3)cs2)oc2ccccc12	> 26 µM (inactive)
CCN1C/C(=C/c2cccc([N+](=O)[O-])c2)C(=O)/C(=C/c2cccc([N+](=O)[O-])c2)C1	> 26 µM (inactive)
CCCCCCCCCCOC(=O)Cn1c(COc2ccccc2C)[n+](C)c2ccccc21	> 26 µM (inactive)
COc1cc(-c2nc3ccc(C)cn3c2NCc2ccccc2)ccc1SC1CCCCC1	> 26 µM (inactive)
Cc1cccn2c(Nc3ccccc3)c(-c3ccccn3)nc12	> 26 µM (inactive)
COc1ccc(Nc2nc(N3CCCC3)c3ccccc3n2)cc1	17.1 µM
COc1ccc(OC)c2c1C(=O)C(Cl)=C(Cl)C2=O	> 26 µM (inactive)
Oc1ccc(COCc2ccccc2)c2cccnc12	> 26 µM (inactive)
CC[C@H](C)[C@@H](C(=O)NCCCCCCCCCCC(=O)N1CCN(C(=O)OC(C)(C)C)CC1)n1cc(CCCCCNC(=O)OC(C)(C)C)nn1	> 26 µM (inactive)
CC(=O)SC1CC(=O)N(c2c(C)cccc2C)C1=O (stereo not given)	> 26 µM (inactive)
O=c1c2ccccc2nc(COc2ccccc2)n1/N=C/c1ccc(O)cc1O	> 26 µM (inactive)
CCn1c(SCC(=O)Nc2ccc(OC)cc2)nc2nc3c(cc2c1=O)CCCC3	> 26 µM (inactive)
CC(=O)c1ccc(NC(=S)NC(C)c2ccc(Cl)cc2Cl)cc1 (stereo not given)	> 26 µM (inactive)

SMILES	AC50
CC(=O)Nc1ccc(C2=CC(=O)C[C@H](c3ccc4c(c3)OCO4)C2)cc1	> 26 µM (inactive)
COc1ccc(-c2sc3ccccc3c2-c2ccc(OCCN3CCCCC3)cc2)cc1	> 26 µM (inactive)
CC1CCC(C(C)C)C(OC(=O)Cn2c(-c3ccc(Br)cc3)[n+](C)c3ccccc32)C1 (stereo not given)	> 26 µM (inactive)
COc1ccc(S(=O)(=O)/N=C2\C=C(Nc3ccc(O)cc3)C(=O)c3ccccc32)cc1	> 26 µM (inactive)
CCCCOc1ccc(-c2cc(C(=O)NNC(=S)NCC)c3ccccc3n2)cc1	> 26 µM (inactive)
c1ccc(CCNc2nc(-c3ccccn3)nc3ccccc23)cc1	> 26 µM (inactive)
O=C(N/N=C/c1ccc(O)cc1O)/C(=C/c1ccccc1)CCO	> 26 µM (inactive)
O=C(Oc1c(CN2CCOCC2)cc(Cl)c2cccnc12)c1ccccc1Br	> 26 µM (inactive)
COc1cccc(/C=N/NC(=O)c2c(C)nc3ccc(Cl)cn23)c1O	> 26 µM (inactive)
NC1=C(Br)C(=O)c2ccccc2C1=O	> 26 µM (inactive)
O=C(N/N=C/c1ccccc1O)/C(=C/c1ccccc1)CCO	> 26 µM (inactive)
CCN1/C(=C/C=C/c2sc3ccccc3[n+]2CC)Sc2ccccc21	> 26 µM (inactive)
C/C(=N\NC(=O)c1c(C)nc2ccccn12)c1ccc(O)cc1O	> 26 µM (inactive)
c1ccc(N2CCN(c3nc(-c4ccccn4)nc4ccccc34)CC2)cc1	> 26 µM (inactive)
O=C(NCc1ccccc1)C1=C[C@@H](c2csc3ccccc23)C[C@@H](OCc2ccc(CO)cc2)O1	> 26 µM (inactive)
CCN(CC)c1ccc(/C=N/NC(=O)c2ccc3nc[nH]c3c2)c(O)c1	> 26 µM (inactive)
CC(=O)c1cccc(NS(=O)(=O)c2ccc(N/C=C\C(=O)c3ccc(F)cc3)cc2)c1	> 26 µM (inactive)
Cc1ccc(C(=O)c2c(C)oc3c2C(=O)C(=O)c2ccccc2-3)cc1	> 26 µM (inactive)
CCCCCCCCCCCCCCCC[n+]1cccc(C(=O)N(CC)CC)c1	> 26 µM (inactive)
CCS(=O)(=O)c1ccc(OC)c(N=Nc2ccc(O)c3ncccc23)c1	> 26 µM (inactive)
Cn1nnnc1Sc1ncnc2scc(-c3cc4ccccc4o3)c12	> 26 µM (inactive)
COc1ccc(-c2csc(NC(=O)C3CCN(c4ncnc5sc(C)c(C)c45)CC3)n2)cc1OC	> 26 µM (inactive)
O=C(NC(NC(=S)Nc1ccccc1)C(Cl)(Cl)Cl)c1cccc(Cl)c1 (stereo not given)	> 26 µM (inactive)
Cc1sc2ncnc(N3CCN(S(=O)(=O)c4ccc(C(C)(C)C)cc4)CC3)c2c1C	> 26 µM (inactive)
CCOC(=O)C(=CNc1ccc(C(O)(C(=O)OCC)C(F)(F)F)cc1C)C(=O)OCC (stereo not given)	> 26 µM (inactive)
